Strand notation (5' to 3'): a small letter for the sugar, then the base; units joined by * are phosphorothioate-linked, units joined directly phosphodiester-linked; [ ] holds rarer units or linkages, { } end groups; capitals alone tell only the bases. k = constrained ethyl (cEt); [5mC] = 5-methylcytosine; d = 2'-deoxy (DNA)

In the first series the test system is Yap1 mRNA. As to the kind of experiment: Antisense inhibition of human Yap1 in A-431 cells by cEt gapmers, single dose (Example 2, RTS4814). The format is cell-based. The following applies: A-431 cells, 5,000 cells per well, free uptake, 2,000 nM modified oligonucleotide, approx. 48 hours, RTS4814, normalized to RIBOGREEN; Table 4; asterisk (*) = targets amplicon region of primer probe set. The method, boiled down: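 Read-out is Yap1 mRNA as percent of untreated cells, by real-time RT-PCR (probe set RTS4814) normalized to total RNA via RIBOGREEN. Cells were A-431 dosed with 2,000 nM gapmer without transfection for approximately 48 hours.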
As for “716460 (kT*kA*kT*dT*d[5mC]*dT*dA*dA*dA*dT*dG*d[5mC]*dA*kT*kA*k[5mC]; antisense) [Compound 716460]”, the “YAP1 (% UTC)” value is recorded as 86 % UTC.

For “716421 (kT*kA*kT*dT*dA*dG*d[5mC]*d[5mC]*dT*dG*dA*dA*dA*kA*k[5mC]*kT; antisense) [Compound 716421]”, the “YAP1 (% UTC)” value was 86 % UTC.

Still in this series, the particulars now being: Table 5; A-431 cells, 5,000 cells per well, free uptake, 2,000 nM modified oligonucleotide, approx. 48 hours; RTS4814; normalized to RIBOGREEN; Yap1 mRNA relative to untreated control cells.
As to “716551 (k[5mC]*kG*k[5mC]*dT*dA*dG*dA*dA*dA*dA*dG*dT*dG*kT*kT*kA; antisense) [Compound 716551]”, the “YAP1 (% UTC)” value was determined as 76 % UTC.

As for “716578 (kA*kA*k[5mC]*dT*dT*dT*d[5mC]*dA*d[5mC]*dA*dT*dA*dA*kA*k[5mC]*kT; antisense) [Compound 716578]”, the “YAP1 (% UTC)” value is 102 % UTC.

On to “716467 (k[5mC]*k[5mC]*kG*dT*dA*dT*dG*d[5mC]*d[5mC]*d[5mC]*dA*dG*dA*kG*kG*kG; antisense) [Compound 716467]”, for which the “YAP1 (% UTC)” value worked out at 99 % UTC.

The same series, now with this note: Table 6; A-431 cells, 5,000 cells per well, free uptake, 2,000 nM modified oligonucleotide, approx. 48 hours; RTS4814; normalized to RIBOGREEN; Yap1 mRNA relative to untreated control cells.
In the case of “716378 (kG*k[5mC]*kA*dG*dA*dG*dG*dT*dA*d[5mC]*dA*dT*d[5mC]*kA*kT*k[5mC]; antisense) [Compound 716378]”, the “YAP1 (% UTC)” value is on record as 44 % UTC.

In the case of “716558 (k[5mC]*kT*k[5mC]*dT*dT*dA*d[5mC]*dA*dT*d[5mC]*dT*dA*dA*kA*kA*k[5mC]; antisense) [Compound 716558]”, the “YAP1 (% UTC)” value was found to be 81 % UTC.

Take “716483 (k[5mC]*kA*kA*dA*dA*d[5mC]*d[5mC]*dT*dT*dA*dT*dA*dG*kT*kA*kT; antisense) [Compound 716483]”: the “YAP1 (% UTC)” value is 159 % UTC.

Still in this series, the particulars now being: Table 18; A-431 cells, 5,000 cells per well, free uptake, 2,000 nM modified oligonucleotide, approx. 48 hours; RTS4814; normalized to RIBOGREEN; Yap1 mRNA as percent of untreated control.
On to “1075076 (antisense k[5mC]*kA*kT*dA*dA*d[5mC]*dA*dT*d[5mC]*dA*dT*dG*dG*kA*kA*kG) [Compound 1075076]”, for which the “YAP1 (% UTC)” value is recorded as 25 % UTC.

On to “1074308 (antisense kG*k[5mC]*kA*dT*dT*dG*d[5mC]*d[5mC]*dT*dG*dT*dG*dG*k[5mC]*k[5mC]*kT) [Compound 1074308]”, for which the “YAP1 (% UTC)” value came out at 132 % UTC.

Take “1076292 (kT*kA*kT*dT*dA*dT*dT*dG*dA*dG*dT*dT*dA*kT*k[5mC]*k[5mC]; antisense) [Compound 1076292]”: the “YAP1 (% UTC)” value amounted to 27 % UTC.

Take “1076164 (kT*kG*kA*dT*dA*dT*dA*dA*dG*dT*dT*dA*d[5mC]*k[5mC]*kA*kA; antisense) [Compound 1076164]”: the “YAP1 (% UTC)” value was determined as 50 % UTC.

With “1075204 (antisense kG*kT*kT*dA*dA*dA*d[5mC]*dA*d[5mC]*dA*dT*d[5mC]*dT*k[5mC]*kA*kG) [Compound 1075204]”, the “YAP1 (% UTC)” value came out at 43 % UTC.

In the case of “1074212 (antisense kG*k[5mC]*kT*dT*d[5mC]*d[5mC]*dG*dG*dA*dG*d[5mC]*d[5mC]*dT*k[5mC]*kA*kT) [Compound 1074212]”, the “YAP1 (% UTC)” value turned out to be 53 % UTC.

Still in this series, the particulars now being: Table 19; A-431 cells, 5,000 cells per well, free uptake, 2,000 nM modified oligonucleotide, approx. 48 hours; RTS4814; normalized to RIBOGREEN; Yap1 mRNA as percent of untreated control.
Regarding “1075205 (antisense kA*kT*kT*dA*dA*dA*dT*dG*dA*dG*d[5mC]*dA*d[5mC]*k[5mC]*kA*k[5mC]) [Compound 1075205]”, the “YAP1 (% UTC)” value came to 29 % UTC.

“1074373 (antisense kG*k[5mC]*kT*dT*dT*dG*dG*dT*dT*dG*dA*dT*dA*kG*kT*kA) [Compound 1074373]”: the “YAP1 (% UTC)” value was determined as 26 % UTC.

With “1076261 (k[5mC]*k[5mC]*k[5mC]*d[5mC]*dA*dA*d[5mC]*dA*dA*dG*dT*dT*d[5mC]*k[5mC]*kT*kG; antisense) [Compound 1076261]”, the “YAP1 (% UTC)” value was found to be 39 % UTC.

For the substance “1075493 (antisense kA*kG*kA*d[5mC]*dA*dA*dG*dG*dG*dA*dT*dG*d[5mC]*kT*kA*kA) [Compound 1075493]”, the “YAP1 (% UTC)” value turned out to be 67 % UTC.

In the case of “1075365 (k[5mC]*kA*k[5mC]*dG*dA*dA*dA*dA*dT*dA*dG*dT*dT*k[5mC]*kT*k[5mC]; antisense) [Compound 1075365]”, the “YAP1 (% UTC)” value worked out at 11 % UTC.

Still in this series, the particulars now being: Table 20; Yap1 mRNA, percent of untreated control; 3-10-3 cEt gapmers targeting SEQ ID NO.: 1 and 2.
Consider “1076102 (k[5mC]*kT*kT*dA*dA*d[5mC]*dA*dA*dA*dT*d[5mC]*dA*dG*k[5mC]*k[5mC]*k[5mC]; antisense) [Compound 1076102]”, for which the “YAP1 (% UTC)” value was determined as 32 % UTC.

“1074470 (k[5mC]*k[5mC]*k[5mC]*d[5mC]*d[5mC]*d[5mC]*dA*d[5mC]*d[5mC]*dG*dA*d[5mC]*d[5mC]*k[5mC]*kT*kG; antisense) [Compound 1074470]”: the “YAP1 (% UTC)” value was 69 % UTC.

The same series, now with this note: Table 21; Yap1 mRNA, percent of untreated control; 3-10-3 cEt gapmers targeting SEQ ID NO.: 1 and 2.
On to “1076455 (antisense kA*k[5mC]*kT*dA*dA*dA*dT*dA*d[5mC]*dT*dT*dT*dT*kA*kG*k[5mC]) [Compound 1076455]”, for which the “YAP1 (% UTC)” value is recorded as 86 % UTC.

Turning to “1075399 (antisense k[5mC]*kA*kT*dA*dT*dA*dT*dA*dT*dG*dG*d[5mC]*d[5mC]*k[5mC]*kT*kT) [Compound 1075399]”, the “YAP1 (% UTC)” value is reported as 15 % UTC.

“1074535 (antisense kG*kT*kA*dA*dT*dA*dG*d[5mC]*dT*d[5mC]*dT*dT*dT*k[5mC]*kT*kA) [Compound 1074535]”: the “YAP1 (% UTC)” value worked out at 5 % UTC.

The same series, now with this note: Table 22; Yap1 mRNA as percent of untreated control; 3-10-3 cEt gapmers; single dose.
Turning to “1075624 (kA*kT*k[5mC]*dT*dA*dT*dA*dA*d[5mC]*d[5mC]*d[5mC]*dT*dT*kA*kT*kT; antisense) [Compound 1075624]”, the “YAP1 (% UTC)” value is 91 % UTC.

Consider “1074472 (kA*kA*k[5mC]*d[5mC]*d[5mC]*d[5mC]*d[5mC]*d[5mC]*d[5mC]*dA*d[5mC]*d[5mC]*dG*kA*k[5mC]*k[5mC]; antisense) [Compound 1074472]”, for which the “YAP1 (% UTC)” value was found to be 107 % UTC.

Consider “1075848 (kG*kA*kT*dT*dA*d[5mC]*dA*dA*dT*dG*dG*dG*d[5mC]*kA*kG*kT; antisense) [Compound 1075848]”, for which the “YAP1 (% UTC)” value is recorded as 9 % UTC.

The series is the same for the next values; noted with them: Table 24; Yap1 mRNA as percent of untreated control; 3-10-3 cEt gapmers targeting SEQ ID NO.: 1, and 2.
On to “1076170 (kA*kG*kT*dA*dA*dA*dG*dA*dG*dT*dA*d[5mC]*dT*kG*kT*kA; antisense) [Compound 1076170]”, for which the “YAP1 (% UTC)” value is 16 % UTC.

For “1076138 (kA*kG*k[5mC]*d[5mC]*dA*dA*d[5mC]*dA*dA*dT*dT*dT*dT*kT*kG*kG; antisense) [Compound 1076138]”, the “YAP1 (% UTC)” value is 113 % UTC.

Take “1074218 (antisense kA*kG*kG*dG*d[5mC]*dT*d[5mC]*d[5mC]*dT*dG*d[5mC]*dA*dG*kT*kG*k[5mC]) [Compound 1074218]”: the “YAP1 (% UTC)” value is listed as 70 % UTC.

Turning to “1075306 (kT*kA*kA*dA*d[5mC]*dG*dA*dA*dA*d[5mC]*dA*d[5mC]*dG*kG*kG*kT; antisense) [Compound 1075306]”, the “YAP1 (% UTC)” value amounted to 30 % UTC.

The same series, now with this note: Table 25; Yap1 mRNA as percent of untreated control; 3-10-3 cEt gapmers targeting SEQ ID NO.: 1, and 2.
As for “1074251 (antisense kT*k[5mC]*kT*dG*dA*dT*d[5mC]*dG*dA*dT*dG*dT*dG*kA*kT*kT) [Compound 1074251]”, the “YAP1 (% UTC)” value came to 7 % UTC.

The series is the same for the next values; noted with them: Table 32; Yap1 mRNA, percent of untreated control; 3-10-3 cEt gapmers targeting SEQ ID NO.: 1, and 2.
As to “1074642 (antisense kG*kG*kG*d[5mC]*d[5mC]*dA*dA*dA*dA*dT*dA*d[5mC]*dT*kT*kA*kG) [compound 1074642]”, the “YAP1 (% UTC)” value was 78 % UTC.

As to “1075698 (kG*kT*kT*dT*dA*dA*dT*dA*dA*dT*d[5mC]*d[5mC]*dA*kT*kG*k[5mC]; antisense) [compound 1075698]”, the “YAP1 (% UTC)” value came out at 10 % UTC.

The same series, now with this note: Table 33; Yap1 mRNA, percent of untreated control; 3-10-3 cEt gapmers targeting SEQ ID NO.: 1, and 2.
As for “1074739 (kG*kA*k[5mC]*dT*d[5mC]*dT*dT*dA*dG*dG*dT*d[5mC]*dT*k[5mC]*k[5mC]*kT; antisense) [compound 1074739]”, the “YAP1 (% UTC)” value was found to be 24 % UTC.

On to “1075315 (antisense k[5mC]*kA*kT*dA*dA*d[5mC]*dT*dT*dG*dA*dT*dG*dA*k[5mC]*kT*k[5mC]) [compound 1075315]”, for which the “YAP1 (% UTC)” value was found to be 27 % UTC.

As to “1075187 (kG*k[5mC]*k[5mC]*d[5mC]*dA*dA*dG*dG*dA*dG*dG*dA*dA*kA*kT*k[5mC]; antisense) [compound 1075187]”, the “YAP1 (% UTC)” value is 77 % UTC.

Staying with this series, now noted: Yap1 mRNA as percent of untreated control; A-431 cells; 3-10-3 cEt gapmers targeting SEQ ID NO.: 1, and 2; Table 30.
Consider “1075024 (antisense kA*k[5mC]*kT*dG*dA*dA*d[5mC]*dA*dA*dG*dT*dA*dT*k[5mC]*kT*kT) [compound 1075024]”, for which the “YAP1 (% UTC)” value is listed as 32 % UTC.

For “1076112 (kA*kT*kT*d[5mC]*dA*dA*dA*dA*d[5mC]*d[5mC]*dA*d[5mC]*dG*kG*kA*kA; antisense) [compound 1076112]”, the “YAP1 (% UTC)” value is on record as 98 % UTC.

As for “1075440 (antisense kA*kA*kA*dT*dT*dA*dT*dT*dA*dG*dT*dT*dG*kT*k[5mC]*kG) [compound 1075440]”, the “YAP1 (% UTC)” value turned out to be 28 % UTC.

Staying with this series, now noted: Yap1 mRNA as percent of untreated control; A-431 cells; 3-10-3 cEt gapmers targeting SEQ ID NO.: 1, and 2; Table 31.
Take “1074481 (kA*kA*kT*dA*dT*dG*dG*dT*d[5mC]*dA*dT*dT*dT*kG*k[5mC]*k[5mC]; antisense) [compound 1074481]”: the “YAP1 (% UTC)” value worked out at 14 % UTC.

With “1075601 (antisense kA*k[5mC]*kA*d[5mC]*dT*dA*dT*dA*dA*dT*d[5mC]*dT*dG*kA*k[5mC]*k[5mC]) [compound 1075601]”, the “YAP1 (% UTC)” value worked out at 50 % UTC.

These data come from patent US11214803B2, “Modulators of YAP1 expression” (Ionis Pharmaceuticals, Inc., priority 2019, dated 2022).
